In patent US20240034731A1, “AZA-QUINAZOLINE COMPOUNDS AND METHODS OF USE” (Iambic Therapeutics, Inc., priority 2022, published 2024):

How the values were obtained:
CDK1/Cyclin B1 = CDK1/Cyclin B1 (Homo sapiens (Human), UniProt P06493); assay: CDK1/Cyclin B1 ADP-Glo Kinase Assay; type: biochemical; conditions: ADP-Glo, 80 uM ATP; read-out: CDK1 Cyclin B1 IC50
Protocol: CDK1/Cyclin B1 ADP-Glo Kinase Assay
(§1) The purpose of CDK1/Cyclin B1 assay is to evaluate the inhibition (% inhibition and IC50 values) of small molecule inhibitors by using a Luminescent based ADP-Glo assay. CDK1/Cyclin B1 catalyzes the production of ADP from ATP. ADP-Glo assay monitors ADP producing biochemical reactions. ADP-Glo is performed in 2 steps upon completion of kinase reaction: a combined termination of kinase reaction and depletion of remaining ATP in the first step, and conversion of generated ADP to ATP and the newly produced ATP to light output using luciferase/luciferin reaction in the second step. The luminescent signal generated is proportional to the ADP concentration produced and is correlated with the kinase activity. CDK1/Cyclin B1 was purchased from Carna (Cat 04-102). […] The assay was initiated with the addition of ATP-containing substrate solution, following a 30-minute pre-incubation of enzyme and inhibitor at room temperature in the reaction mixture. The reaction was stopped after 90 minutes at room temperature by the addition of 10 uL of ADP-GLO Reagent. After a 90 minute incubation, 20 uL of Kinase Detection Reagent was added. Samples were incubated for 40 minutes, after which plate well luminescence was measured on a Envision microplate reader. The IC50 determinations were made from a plot of the fractional velocity as a function of inhibitor concentration fit to the 4 parameters IC50 equation.

CDK2/Cyclin E1 = CDK2/Cyclin E1 (Homo sapiens (Human), UniProt P24941); assay: CDK2/Cyclin E1 Full length ADP-Glo Kinase Assay; type: biochemical; conditions: 20 uM ATP, read-out: CDK2/ CyclinE1 IC50
Protocol: CDK2/Cyclin E1 Full length ADP-Glo Kinase Assay
as §1, with “of CDK2/Cyclin E1” for “of CDK1/Cyclin B1”, “assay. CDK2/Cyclin E1 full length” for “assay. CDK1/Cyclin B1”, “activity. CDK2/Cyclin E1” for “activity. CDK1/Cyclin B1”, “from Eurofins” for “from Carna”, “(Cat 14-475M).” for “(Cat 04-102).”

CDK4/Cyclin D1 = CDK4/Cyclin D1 (Homo sapiens (Human), UniProt P11802); assay: CDK4/Cyclin D1 CHEF Assay (AQT0258 peptide); type: biochemical; conditions: 200 uM ATP, read-out: CDK4/ CyclinD1 AQT IC50
Chain of CDK4/Cyclin D1 (P11802 whole entry): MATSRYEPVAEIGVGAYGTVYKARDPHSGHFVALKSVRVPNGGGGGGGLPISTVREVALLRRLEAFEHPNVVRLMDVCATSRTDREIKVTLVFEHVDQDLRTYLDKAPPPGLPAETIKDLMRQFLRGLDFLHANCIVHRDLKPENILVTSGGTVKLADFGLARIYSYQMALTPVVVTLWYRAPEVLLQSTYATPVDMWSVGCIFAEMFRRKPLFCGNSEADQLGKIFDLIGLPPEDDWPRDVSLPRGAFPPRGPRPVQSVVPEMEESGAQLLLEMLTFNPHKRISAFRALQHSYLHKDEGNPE
Chain of CDK4/Cyclin D1 (P24385 whole entry partner): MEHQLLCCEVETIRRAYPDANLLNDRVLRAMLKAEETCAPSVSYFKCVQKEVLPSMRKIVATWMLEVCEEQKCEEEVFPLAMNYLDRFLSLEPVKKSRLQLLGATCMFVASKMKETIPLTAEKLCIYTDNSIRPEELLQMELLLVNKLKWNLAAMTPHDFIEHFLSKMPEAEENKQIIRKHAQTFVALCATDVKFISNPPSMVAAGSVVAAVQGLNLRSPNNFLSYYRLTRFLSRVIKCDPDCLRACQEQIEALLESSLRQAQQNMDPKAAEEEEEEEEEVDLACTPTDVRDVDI
Description: CDK4/Cyclin D1 CHEF Assay
The purpose of CDK4/Cyclin D1 assay is to evaluate the inhibition (% inhibition and IC50 values) of small molecule inhibitors by using a Chelation-Enhance Fluorescence (CHEF) assay. In a CHEF assay, phosphorylation of a peptide substrate results in proportional increase in fluorescence. CHEF kinase assay use peptide substrates containing a synthetic alpha-amino acid with a side chain bearing an 8-hydroxyquinoline derivative (sulfonamido-oxide, Sox). Upon phosphorylation of a nearby serine, threonine or tyrosine and in the presence of Mg(II), the spectral properties of the Sox residue are altered, emitting 485 nm wavelength light when excited with a 360 nm wavelength light source. CDK4/Cyclin D1 catalyzes the phosphoryl transfer to the SOX-labeled substrate peptide AQT0258 from Assayquant Technologies. […] The reaction was initiated with the addition of substrate solution, following a 30-minute pre-incubation of enzyme and inhibitor at 22° C. in the reaction mix. Reactions were allowed to proceed for 3 hrs at 22° C., followed by fluorescence read of the reaction. The IC50 determinations were made from a plot of the fractional velocity as a function of inhibitor concentration fit to the 4 parameters IC50 equation.

CDK6/Cyclin D3 = CDK6/Cyclin D3 (Homo sapiens (Human), UniProt Q00534); assay: CDK6/Cyclin D3 ADP-Glo Kinase Assay; type: biochemical; conditions: 100 uM ATP, read-out: CDK6/ CyclinD3 IC50
Chain of CDK6/Cyclin D3 (Q00534 whole entry): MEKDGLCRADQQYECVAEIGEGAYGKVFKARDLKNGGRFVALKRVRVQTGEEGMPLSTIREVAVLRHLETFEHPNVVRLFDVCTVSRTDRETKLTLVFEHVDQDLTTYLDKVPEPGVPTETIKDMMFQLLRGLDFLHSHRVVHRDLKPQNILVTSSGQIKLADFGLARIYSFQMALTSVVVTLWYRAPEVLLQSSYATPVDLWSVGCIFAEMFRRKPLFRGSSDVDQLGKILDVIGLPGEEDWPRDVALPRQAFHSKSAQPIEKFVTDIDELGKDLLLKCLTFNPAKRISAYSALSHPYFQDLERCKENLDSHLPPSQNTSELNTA
Chain of CDK6/Cyclin D3 (P30281 whole entry partner): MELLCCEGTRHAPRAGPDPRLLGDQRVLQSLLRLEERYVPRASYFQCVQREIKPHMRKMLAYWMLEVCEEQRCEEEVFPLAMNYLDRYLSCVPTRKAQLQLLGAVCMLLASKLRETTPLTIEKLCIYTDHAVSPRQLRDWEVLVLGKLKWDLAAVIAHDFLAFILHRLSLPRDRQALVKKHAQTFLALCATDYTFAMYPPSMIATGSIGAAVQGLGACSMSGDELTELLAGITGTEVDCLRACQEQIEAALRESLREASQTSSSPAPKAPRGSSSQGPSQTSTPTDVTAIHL
Protocol: CDK6/Cyclin D3 ADP-Glo Kinase Assay
The purpose of the CDK6/Cyclin D3 assay is to evaluate the inhibition (% inhibition and IC50 values) in the presence of small molecule inhibitors by using a Luminescent based ADP-Glo assay. CDK6/Cyclin D3 catalyzes the production of ADP from ATP. ADP-Glo assay monitors ADP producing biochemical reactions. ADP-Glo is performed in 2 steps upon completion of kinase reaction: a combined termination of kinase reaction and depletion of remaining ATP in the first step, and conversion of generated ADP to […] and the newly produced ATP to light output using luciferase/luciferin reaction in the second step. The luminescent signal generated is proportional to the ADP concentration produced and is correlated with the kinase activity CDK6/Cyclin D3 was purchased from Carna. […] The assay was initiated with the addition of ATP-containing substrate solution, following a 30-minute pre-incubation of enzyme and inhibitor at room temperature in the reaction mixture. The reaction was stopped after 90 minutes at room temperature by the addition of 10 uL of ADP-GLO Reagent. After a 90-minute incubation, 20 uL of Kinase Detection Reagent was added. Samples were incubated for 40 minutes, after which plate well luminescence was measured on a Envision microplate reader. The IC50 determinations were made from a plot of the fractional velocity as a function of inhibitor concentration fit to the 4 parameters IC50 equation.

MCF-7 cells = assay: Cell Growth Inhibition, MCF-7 (CellTiterGlo, 6 days); type: cell-based; conditions: Homo sapiens, MCF7, 144 h, MCF-7, 6-day treatment
Description: (§2) MCF-7 and OVCAR-3 cells were used to evaluate the anti-proliferation activity of the CDK inhibitors. MCF-7 (ATCC, HTB-22) cells are epithelial cells from a patient with ER+ metastatic adenocarcinoma. OVCAR-3 (ATCC, HTB-161) cells were derived from malignant ascites of a patient with ovarian cancer and are known to have CCNE1 amplification. Both cell lines were maintained in RPMI media supplemented with 10% fetal bovine serum. For cell growth inhibition assay, CDK inhibitors in DMSO solution were dispensed with either Echo 655 (Beckman Coulter) or Tecan D300e (HP) into 384-well plates (Corning #3765) and the 384-well plates were UV-sterilized prior to the assay. The inhibitors were typically tested in the 10-10,000 nM concentration range with half-log serial dilutions. MCF-7 or OVCAR-3 (500 cells/30 μL/well) were added to each well using Multidrop Combi (ThermoFisher) using standard cassettes. The assay plates with cells were cultured at 37° C., 5% CO2 for 6 days. At the end of the 6-day treatment, 30 μL of CellTiterGlo 2.0 (Promega) was added to each well and the luminescent signal was read using CLARIOstar plus (BMG). The percentage of cell growth inhibition (% CGI) was calculated using the following formula 00 CGI=100-100×luminescencesampie/luminescencecontroi. The half maximal inhibitory concentration (IC50) was determined by nonlinear curve fitting (four parameters, variable slope).

OVCAR-3 cells = assay: Cell Growth Inhibition, OVCAR-3 (CellTiterGlo, 6 days); type: cell-based; conditions: Homo sapiens, 144 h, OVCAR-3, 6-day treatment
Description: as §2

Chain of CDK1/Cyclin B1 (P06493 whole entry): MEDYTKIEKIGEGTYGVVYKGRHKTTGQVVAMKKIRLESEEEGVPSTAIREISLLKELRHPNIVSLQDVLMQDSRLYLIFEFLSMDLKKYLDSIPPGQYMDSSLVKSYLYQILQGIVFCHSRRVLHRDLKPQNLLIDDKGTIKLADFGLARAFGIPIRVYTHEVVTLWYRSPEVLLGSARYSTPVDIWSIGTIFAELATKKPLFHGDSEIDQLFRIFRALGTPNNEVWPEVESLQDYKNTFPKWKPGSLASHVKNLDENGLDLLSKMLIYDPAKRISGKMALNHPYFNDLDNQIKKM
Chain of CDK1/Cyclin B1 (P14635 whole entry partner): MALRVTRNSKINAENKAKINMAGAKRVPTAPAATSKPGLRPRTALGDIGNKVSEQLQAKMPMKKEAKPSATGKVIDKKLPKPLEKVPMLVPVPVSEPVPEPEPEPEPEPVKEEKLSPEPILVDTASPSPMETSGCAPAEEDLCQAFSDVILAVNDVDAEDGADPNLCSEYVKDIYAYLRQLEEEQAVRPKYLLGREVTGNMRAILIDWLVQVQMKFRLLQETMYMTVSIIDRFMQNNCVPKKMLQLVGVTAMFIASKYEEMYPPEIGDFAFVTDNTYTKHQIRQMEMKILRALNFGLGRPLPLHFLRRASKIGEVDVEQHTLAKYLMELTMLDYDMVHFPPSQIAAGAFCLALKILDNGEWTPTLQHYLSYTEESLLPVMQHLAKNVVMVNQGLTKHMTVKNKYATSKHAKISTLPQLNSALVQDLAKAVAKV

Row | Compound | IC50 (CDK1/Cyclin B1) [µM] | IC50 (CDK2/Cyclin E1) [µM] | IC50 (CDK4/Cyclin D1) [µM] | IC50 (CDK6/Cyclin D3) [µM] | IC50 (MCF-7 cells) [µM] | IC50 (OVCAR-3 cells) [µM]
1 | O=S(=O)(CC1CCC1)N1CCC(Nc2ncc3cc(C(F)F)nc(N4CC5(CCNC5)C4)c3n2)CC1 [Compound 55, N-(1-((cyclobutylmethyl)sulfonyl)piperidin-4-yl)-6-(difluoromethyl)-8-(2,6-diazaspiro[3.4]octan-2-yl)pyrido[3,4-d]pyrimidin-2-amine] | < 0.2 | < 0.2 | < 0.2 | < 0.2 | 0.2 to 0.5 | 0.5 to 2
2 | CN1Cc2ccc(Nc3ncc4ccnc(N5CC6(C5)CS(=O)(=O)C6)c4n3)cc2C1 [Compound 24, 6-(2-((2-methylisoindolin-5-yl)amino)pyrido[3,4-d]pyrimidin-8-yl)-2-thia-6-azaspiro[3.3]heptane 2,2-dioxide] | 0.5 to 2 | < 0.2 | < 0.2 | < 0.2 | 0.5 to 2 | 0.5 to 2
3 | Cc1cc2cnc(Nc3ccc4c(c3)CN(C)C4)nc2c(N2CC3(C2)CN(C2CC2)C3)n1 [Compound 44, 8-(6-cyclopropyl-2,6-diazaspiro[3.3]heptan-2-yl)-6-methyl-N-(2-methylisoindolin-5-yl)pyrido[3,4-d]pyrimidin-2-amine] | > 2 | > 2 | 0.2 to 0.5 | 0.5 to 2 | > 2 | > 2
4 | Cc1cc2cnc(NC3CCN(S(C)(=O)=O)CC3)nc2c(N2CC3(CNC(=O)C3)C2)n1 [Compound 81, 2-(6-methyl-2-((1-(methylsulfonyl)piperidin-4-yl)amino)pyrido[3,4-d]pyrimidin-8-yl)-2,6-diazaspiro[3.4]octan-7-one] | 0.2 to 0.5 | < 0.2 | < 0.2 | 0.2 to 0.5 | – | –
5 | O=S(=O)(C1CC1)N1CCC(Nc2ncc3cc(C(F)F)nc(N4CC5(CCNC5)C4)c3n2)CC1 [Example 46] | < 0.2 | – | < 0.2 | < 0.2 | 0.5 to 2 | 0.5 to 2
6 | [2H]C([2H])([2H])N1CC2(CN(c3nc(C)cc4cnc(NC5CCN(S(C)(=O)=O)CC5)nc34)CC2(F)F)C1 [Example 12, 8-(8,8-difluoro-2-(methyl-d3)-2,6-diazaspiro[3.4]octan-6-yl)-6-methyl-N-(1-(methylsulfonyl)piperidin-4-yl)pyrido [3,4-d]pyrimidin-2-amine] | < 0.2 | < 0.2 | < 0.2 | < 0.2 | – | –
7 | [2H]C([2H])([2H])N1CC2(CN(c3nc(C)cc4cnc(NC5CCN(S(=O)(=O)C6CC6)CC5)nc34)CC2(F)F)C1 [Compound 13, N-(1-(cyclopropylsulfonyl)piperidin-4-yl)-8-(8,8-difluoro-2-(methyl-d3)-2,6-diazaspiro[3.4]octan-6-yl)-6-methylpyrido[3,4-d]pyrimidin-2-amine] | < 0.2 | < 0.2 | < 0.2 | < 0.2 | – | –
8 | Cc1cc2cnc(NC3CCN(S(=O)(=O)C4CC4)CC3)nc2c(N2CC(C#N)(CCF)C2)n1 [Compound 68, 1-(2-((1-(cyclopropylsulfonyl)piperidin-4-yl)amino)-6-methylpyrido[3,4-d]pyrimidin-8-yl)-3-(2-fluoroethyl)azetidine-3-carbonitrile] | > 2 | < 0.2 | 0.2 to 0.5 | 0.5 to 2 | – | –
9 | Cc1cc2cnc(NC3CCN(S(C)(=O)=O)CC3)nc2c(N2CC3(CNCC3C(F)F)C2)n1 (centres unmarked) [Compound 100, 8-(8-(difluoromethyl)-2,6-diazaspiro[3.4]octan-2-yl)-6-methyl-N-(1-(methylsulfonyl)piperidin-4-yl)pyrido[3,4-d]pyrimidin-2-amine] | < 0.2 | < 0.2 | < 0.2 | < 0.2 | – | –
10 | Cc1cc2cnc(NC3CCN(S(C)(=O)=O)CC3)nc2c(C2CC3(CNCC3(F)F)C2)n1 (centres unmarked) [Compound 99, 8-(8,8-difluoro-6-azaspiro[3.4]octan-2-yl)-6-methyl-N-(1-(methylsulfonyl)piperidin-4-yl)pyrido[3,4-d]pyrimidin-2-amine] | < 0.2 | < 0.2 | < 0.2 | < 0.2 | – | –
